# Like-named read-outs stand apart in the source and are kept apart here. Numbered stars: 1 amine (or outer) side, 2 acyl side, 3 side chain; on linkers, the order of the positions; unused ones are H or OH. Square brackets hold non-standard residues; d marks the D form. Peptide text beside a SMILES is read from it. X1 = N=C(N)NCCC[C@H](N[*:1])C(=O)c1nc2ccc(C(=O)[*:2])cc2s1; Phe(4-NO2) = N[C@@H](Cc1ccc([N+](=O)[O-])cc1)C(=O)O
# How the values were obtained:
# Type in all cases: biochemical
# [1] = target: T1, Factor Xa (Homo sapiens, UniProt P00742); test: Fluorogenic assay, Factor Xa; details: read-out: Factor Xa IC50
# T1 construct: TMPRSS2; Matriptase; Hepsin; HGFA; Thrombin; Factor Xa
# [2] = target: T2, matriptase (Homo sapiens, UniProt Q9Y5Y6); test: Fluorogenic kinetic enzyme inhibitor assay, matriptase
# T2 construct: purchased R&D Systems 3946-SEB-010
# T2 sequence (Q9Y5Y6 615-855 limits assumed): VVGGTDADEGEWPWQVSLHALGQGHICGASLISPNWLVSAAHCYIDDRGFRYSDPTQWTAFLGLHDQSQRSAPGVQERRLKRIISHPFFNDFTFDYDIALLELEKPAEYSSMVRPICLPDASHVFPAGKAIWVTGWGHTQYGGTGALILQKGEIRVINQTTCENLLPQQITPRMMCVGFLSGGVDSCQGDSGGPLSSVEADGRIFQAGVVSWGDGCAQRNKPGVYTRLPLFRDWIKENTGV
# [3] = target: T3, HGFA (Homo sapiens, UniProt Q04756); test: Fluorogenic kinetic enzyme inhibitor assay, HGFA
# T3 construct: purchased R&D Systems 1514-SE-010
# T3 sequence (Q04756 408-655 limits assumed): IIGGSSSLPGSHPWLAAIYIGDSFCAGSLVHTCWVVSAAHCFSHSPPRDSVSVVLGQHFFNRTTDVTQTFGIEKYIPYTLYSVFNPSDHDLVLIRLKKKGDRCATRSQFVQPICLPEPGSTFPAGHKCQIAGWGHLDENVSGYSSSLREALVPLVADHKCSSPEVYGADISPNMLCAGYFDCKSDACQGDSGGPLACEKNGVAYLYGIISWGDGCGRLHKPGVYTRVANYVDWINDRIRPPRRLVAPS
# T3 sequence (Q04756 373-407 partner limits assumed): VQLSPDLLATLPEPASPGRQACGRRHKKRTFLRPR
# [4] = target: T4, hepsin (Homo sapiens, UniProt P05981); test: Fluorogenic kinetic enzyme inhibitor assay, hepsin
# T4 construct: purchased R&D Systems 4776-SE-010
# [5] = target: TMPRSS2 (Homo sapiens, UniProt O15393); test: Fluorogenic kinetic enzyme inhibitor assay, TMPRSS2; set-up: purchased Cusabio Technology CSB-YP023924HU; details: read-out: TMPRSS2 IC50
# [6] = target: Thrombin (Homo sapiens, UniProt P00734); test: Fluorogenic assay, thrombin
# T4 sequence (P05981 163-417 limits assumed): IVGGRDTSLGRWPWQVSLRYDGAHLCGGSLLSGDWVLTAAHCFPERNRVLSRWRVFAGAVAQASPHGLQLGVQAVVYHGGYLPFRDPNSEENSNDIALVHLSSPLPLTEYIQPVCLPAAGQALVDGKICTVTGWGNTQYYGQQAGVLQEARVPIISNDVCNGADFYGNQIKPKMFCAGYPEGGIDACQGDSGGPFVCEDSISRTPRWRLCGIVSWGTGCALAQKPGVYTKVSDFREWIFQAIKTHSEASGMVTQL
# T4 sequence (P05981 1-162 partner limits assumed): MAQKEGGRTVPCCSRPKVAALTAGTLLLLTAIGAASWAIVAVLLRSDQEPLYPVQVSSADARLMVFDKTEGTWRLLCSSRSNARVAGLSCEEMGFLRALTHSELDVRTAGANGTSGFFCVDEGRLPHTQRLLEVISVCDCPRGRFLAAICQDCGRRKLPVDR
# T1 sequence (P00742 235-488 limits assumed): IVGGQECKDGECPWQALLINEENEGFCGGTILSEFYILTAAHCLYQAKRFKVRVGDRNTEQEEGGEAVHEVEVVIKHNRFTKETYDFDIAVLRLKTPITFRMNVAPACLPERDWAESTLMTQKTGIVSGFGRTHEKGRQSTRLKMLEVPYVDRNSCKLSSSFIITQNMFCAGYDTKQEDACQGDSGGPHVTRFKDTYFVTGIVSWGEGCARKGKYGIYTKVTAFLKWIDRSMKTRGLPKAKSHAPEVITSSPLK
# T1 sequence (P00742 41-179 partner limits assumed): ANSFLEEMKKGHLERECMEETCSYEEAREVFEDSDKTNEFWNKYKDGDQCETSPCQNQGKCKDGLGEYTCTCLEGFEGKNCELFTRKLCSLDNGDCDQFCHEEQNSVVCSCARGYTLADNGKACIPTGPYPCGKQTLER
# TMPRSS2, sequence (O15393 106-492 limits assumed): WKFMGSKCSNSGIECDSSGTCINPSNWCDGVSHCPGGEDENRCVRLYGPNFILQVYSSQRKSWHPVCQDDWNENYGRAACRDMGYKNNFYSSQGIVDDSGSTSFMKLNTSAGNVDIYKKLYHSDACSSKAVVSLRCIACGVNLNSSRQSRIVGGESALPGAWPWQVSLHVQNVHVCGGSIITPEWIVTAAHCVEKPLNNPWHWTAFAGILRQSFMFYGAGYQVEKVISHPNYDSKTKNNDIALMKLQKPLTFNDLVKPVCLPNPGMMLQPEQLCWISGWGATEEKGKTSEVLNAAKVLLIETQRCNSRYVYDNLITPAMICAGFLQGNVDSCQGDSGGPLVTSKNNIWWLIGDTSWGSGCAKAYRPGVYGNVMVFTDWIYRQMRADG
SMILES,IC50 [1],IC50 ([2]; read-out: Matriptase IC50),IC50 ([3]; read-out: HGFA IC50),IC50 ([4]; read-out: Hepsin IC50),IC50 [5],IC50 [6],IC50 [2],IC50 [3],IC50 [4]
"N=C(N)NCCC[C@H](NC(=O)[C@H](Cc1ccccc1)NC(=O)[C@H](CCC(N)=O)NC(=O)Cc1ccccc1)C(=O)c1nc2ccccc2s1 [CA1018, N-[(S)-1-[N-(S)-1-[(1,3-benzothiazol-2-yl)carbonyl]-4-guanidinobutylcarbamoyl]-2-phenylethyl](S)-2-(benzylcarbonylamino) glutaramide]",212 nM,0.99 nM,75.2 nM,0.65 nM,0.407 nM,> 20000 nM,–,–,–
"N=C(N)NCCC[C@@H](NC(=O)[C@H](Cc1ccccc1)NC(=O)[C@H](CCC(N)=O)NCc1ccccc1)C(=O)c1nc2ccccc2s1 [CA1022-1, N-[(S)-1-[N-(R)-1-[(1,3-benzothiazol-2-yl)carbonyl]-4-guanidinobutylcarbamoyl]-2-phenylethyl](S)-2-benzylaminoglutaramide]",442 nM,8.8 nM,1300 nM,0.83 nM,2.35 nM,> 20000 nM,–,–,–
"N=C(N)NCCC[C@H](NC(=O)[C@H](Cc1ccccc1)NC(=O)[C@H](CCC(N)=O)NCc1ccccc1)C(=O)c1nc2ccccc2s1 [CA1022-2, N-[(S)-1-[N-(S)-1-[(1,3-benzothiazol-2-yl)carbonyl]-4-guanidinobutylcarbamoyl]-2-phenylethyl](S)-2-benzylaminoglutaramide]",40 nM,2.31 nM,50.4 nM,0.2 nM,0.993 nM,> 20000 nM,–,–,–
"N=C(N)NCCC[C@@H](NC(=O)[C@H](Cc1ccccc1)NC(=O)[C@H](CCC(N)=O)NCCc1ccccc1)C(=O)c1nc2ccccc2s1 [CA1033-1, N-[(S)-1-[N-(R)-1-[(1,3-benzothiazol-2-yl)carbonyl]-4-guanidinobutylcarbamoyl]-2-phenylethyl](S)-2-(phenethylamino)glutaramide]",16800 nM,77.9 nM,2870 nM,9.43 nM,16.6 nM,> 20000 nM,–,–,–
"N=C(N)NCCC[C@H](NC(=O)[C@H](Cc1ccccc1)NC(=O)[C@H](CCC(N)=O)NCCc1ccccc1)C(=O)c1nc2ccccc2s1 [CA1033-2, N-[(S)-1-[N-(S)-1-[(1,3-benzothiazol-2-yl)carbonyl]-4-guanidinobutylcarbamoyl]-2-phenylethyl](S)-2-(phenethylamino)glutaramide]",1060 nM,2.81 nM,48.5 nM,0.3 nM,0.316 nM,10200 nM,–,–,–
"CN(C)[C@@H](CCC(N)=O)C(=O)N[C@@H](Cc1ccccc1)C(=O)N[C@H](CCCNC(=N)N)C(=O)c1nc2ccccc2s1 [CA1041-1, N-[(S)-1-[N-(R)-1-[(1,3-benzothiazol-2-yl)carbonyl]-4-guanidinobutylcarbamoyl]-2-phenylethyl](S)-2-(dimethylamino)glutaramide]",7010 nM,144 nM,> 20000 nM,123 nM,18.4 nM,> 20000 nM,–,–,–
"CN(C)[C@@H](CCC(N)=O)C(=O)N[C@@H](Cc1ccccc1)C(=O)N[C@@H](CCCNC(=N)N)C(=O)c1nc2ccccc2s1 [CA1041-2, N-[(S)-1-[N-(S)-1-[(1,3-benzothiazol-2-yl)carbonyl]-4-guanidinobutylcarbamoyl]-2-phenylethyl](S)-2-(dimethylamino)glutaramide]",3300 nM,3.5 nM,609 nM,1.89 nM,0.86 nM,> 20000 nM,–,–,–
N=C(N)NCCC[C@H](NC(=O)[C@H](Cc1ccccc1)NC(=O)[C@H](CCC(N)=O)NC(=O)c1ccccc1)C(=O)c1nc2ccccc2s1 [CA1043],1590 nM,0.88 nM,8.45 nM,0.11 nM,0.081 nM,> 20000 nM,–,–,–
"N=C(N)NCCC[C@@H](NC(=O)[C@H](Cc1ccccc1)NC(=O)[C@H](CCC(N)=O)N1CCCCC1)C(=O)c1nc2ccccc2s1 [CA1046-1, N-[(S)-1-[N-(R)-1-[(1,3-benzothiazol-2-yl)carbonyl]-4-guanidinobutylcarbamoyl]-2-phenylethyl](S)-2-piperidinoglutaramide]",12200 nM,1780 nM,> 20000 nM,105 nM,69.2 nM,> 20000 nM,–,–,–
"N=C(N)NCCC[C@H](NC(=O)[C@H](Cc1ccccc1)NC(=O)[C@H](CCC(N)=O)N1CCCCC1)C(=O)c1nc2ccccc2s1 [CA1046-2, N-[(S)-1-[N-(S)-1-[(1,3-benzothiazol-2-yl)carbonyl]-4-guanidinobutylcarbamoyl]-2-phenylethyl](S)-2-piperidinoglutaramide]",2070 nM,41.4 nM,704 nM,0.37 nM,8.23 nM,> 20000 nM,–,–,–
"CC(=O)N[C@@H](Cc1cncn1COCc1ccccc1)C(=O)N[C@@H](CCCCNC(=N)N)C(=O)N[C@@H](CCC(C)C)C(=O)N[C@H](CCCNC(=N)N)C(=O)c1nc2ccccc2s1 [JH1143-1, N-[(R)-1-[(1,3-benzothiazol-2-yl)carbonyl]-4-guanidinobutyl](S)-2-[(S)-1-[(S)-2-acetylamino-3-{1-[(benzyloxy)methyl]-5-imidazolyl}propionylamino]-5-guanidinopentylcarbonylamino]-5-methylhexanamide]",4800 nM,–,543 nM,1.92 nM,7.54 nM,4890 nM,3.02 nM,–,–
"N=C(N)NCCC[C@H](NC(=O)[C@H](Cc1ccccc1)NC(=O)OCC1c2ccccc2-c2ccccc21)C(=O)c1nc2ccccc2s1 [MF1133, (S)-1-[N-(S)-1-[(1,3-benzothiazol-2-yl)carbonyl]-4-guanidinobutylcarbamoyl]-2-phenylethyl(9H-fluoren-9-yl)methanecarbamate]",28.4 nM,2560 nM,1930 nM,2680 nM,19.7 nM,> 20000 nM,–,–,–
"CC(=O)N[C@@H](CO)C(=O)N[C@@H](Cc1ccc([N+](=O)[O-])cc1)C(=O)N[C@@H](CC(C)C)C(=O)N[C@@H](CCCNC(=N)N)C(=O)c1nc2ccc(C(=O)N[C@H](C(N)=O)C(C)C)cc2s1 [MM1180, N-[(S)-1-carbamoyl-2-methylpropyl]-2-[(S)-2-[(S)-2-[(S)-2-[(S)-2-acetylamino-3-hydroxypropionylamino]-3-(p-nitrophenyl)propionylamino]-4-methylvalerylamino]-5-guanidinovaleryl]-1,3-benzothiazole-6-carboxamide] (Ac-S[Phe(4-NO2)]L[X1]V-NH2)",64.2 nM,–,231 nM,3.1 nM,–,134 nM,133 nM,–,–
"CSCC[C@H](NC(C)=O)C(=O)N[C@@H](CCC(N)=O)C(=O)N[C@@H](Cc1ccccc1)C(=O)N[C@@H](CCCNC(=N)N)C(=O)c1nc2ccccc2s1 [MM3130, N-[(S)-1-[N-(S)-1-[(1,3-benzothiazol-2-yl)carbonyl]-4-guanidinobutylcarbamoyl]-2-phenylethyl](S)-2-[(S)-2-acetylamino-4-(methylthio)butyrylamino] glutaramide]",342 nM,–,–,–,0.142 nM,> 20000 nM,0.552 nM,36.4 nM,0.134 nM
"CC(=O)N[C@H](Cc1c[nH]c2ccccc12)C(=O)N[C@@H](Cc1ccccc1)C(=O)N[C@@H](CCCNC(=N)N)C(=O)c1nc2ccc(C(=O)O)cc2s1 [PK-1-93, 2-[(S)-2-[(S)-2-[(R)-2-acetylamino-3-(3-indolyl)propionylamino]-3-phenylpropionylamino]-5-guanidinovaleryl]-1,3-benzothiazole-6-carboxylic acid]",30.5 nM,136 nM,95.5 nM,2 nM,–,19900 nM,–,–,–
"CC(=O)N[C@H]1CCCCn2cc(nn2)C[C@H](C(=O)N[C@H](CCCNC(=N)N)C(=O)c2nc3ccccc3s2)NC(=O)[C@H](CC(C)C)NC1=O [VD4118A, N-[(R)-1-[(1,3-benzothiazol-2-yl)carbonyl]-4-guanidinobutyl]-(6S,9S,12R)-6-acetylamino-9-isobutyl-7,10-dioxo-1,8,11,15,16-pentaazabicyclo[12.2.1]heptadeca-14(17),15-diene-12-carboxamide]",1930 nM,–,15600 nM,117 nM,–,> 20000 nM,19.6 nM,–,–
"CC(=O)N[C@H]1Cc2ccc(cc2)OCCCC[C@@H](C(=O)N[C@H](CCCNC(=N)N)C(=O)c2nc3ccccc3s2)NC(=O)[C@@H](Cc2c[nH]c3ccccc23)NC1=O [VD4162A, N-[(R)-1-[(1,3-benzothiazol-2-yl)carbonyl]-4-guanidinobutyl]-(7S,10R,13S)-13-acetylamino-10-[(3-indolyl)methyl]-9,12-dioxo-2-oxa-8,11-diazabicyclo[13.2.2]nonadeca-1(17),15,18-triene-7-carboxamide]",7470 nM,–,52 nM,3.05 nM,–,> 20000 nM,30.8 nM,–,–

# From patent publication US20250171495A1, “MUTLI-TARGETED SERINE PROTEASE INHIBITORS FOR TREATMENT OF CANCER AND VIRAL INFECTION” (Washington University, priority 2023, published 2025)
